{"source": "patent US20260285850A1", "about": "“SUBSTITUTED OXAZOLIDINONES AND IMIDAZOLINONES AS HERBICIDES” (FMC CORPORATION, priority 2023, published 2026)", "type_in_all_cases": "in vivo", "key": {"[1]": {"test_system": "barnyardgrass (Echinochloa crus-galli)", "test": "Test A preemergence soil spray, visual injury rating 0-100", "settings": "10 days", "summary_of_the_method": "(§1)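 Grow plants in loam soil blended with sand. Apply formulated compound (non-phytotoxic solvent, surfactant) as a directed soil spray before emergence, or to plants at the one- to two-leaf stage after emergence. Hold in greenhouse 10 days, then rate injury visually versus untreated controls on a 0-100 scale.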"}, "[2]": {"test_system": "blackgrass (Alopecurus myosuroides)", "test": "Test A preemergence soil spray, visual injury rating 0-100", "settings": "10 days", "summary_of_the_method": "as §1"}, "[3]": {"test_system": "corn (Zea mays)", "test": "Test A preemergence soil spray, visual injury rating 0-100", "settings": "10 days", "summary_of_the_method": "as §1"}, "[4]": {"test_system": "green foxtail (Setaria viridis)", "test": "Test A preemergence soil spray, visual injury rating 0-100", "settings": "10 days", "summary_of_the_method": "as §1"}, "[5]": {"test_system": "kochia (Bassia scoparia)", "test": "Test A preemergence soil spray, visual injury rating 0-100", "settings": "10 days", "summary_of_the_method": "as §1"}, "[6]": {"test_system": "oat, wild (wild oat, Avena fatua)", "test": "Test A preemergence soil spray, visual injury rating 0-100", "settings": "10 days", "summary_of_the_method": "as §1"}, "[7]": {"test_system": "palmer (palmer amaranth, palmer pigweed, Amaranthus palmeri)", "test": "Test A preemergence soil spray, visual injury rating 0-100", "settings": "10 days", "summary_of_the_method": "as §1"}, "[8]": {"test_system": "ragweed (common ragweed, Ambrosia artemisiifolia)", "test": "Test A preemergence soil spray, visual injury rating 0-100", "settings": "10 days", "summary_of_the_method": "as §1"}, "[9]": {"test_system": "ryegrass, Italian (italian ryegrass, Lolium multiflorum)", "test": "Test A preemergence soil spray, visual injury rating 0-100", "settings": "10 days", "summary_of_the_method": "as §1"}, "[10]": {"test_system": "soybean (Glycine max)", "test": "Test A preemergence soil spray, visual injury rating 0-100", "settings": "10 days", "summary_of_the_method": "as §1"}, "[11]": {"test_system": "wheat (Triticum aestivum)", "test": "Test A preemergence soil spray, visual injury rating 0-100", "settings": "10 days", "summary_of_the_method": "as §1"}, "[12]": {"test_system": "barnyardgrass (Echinochloa crus-galli)", "test": "Test A postemergence application, visual injury rating 0-100", "summary_of_the_method": "as §1"}, "[13]": {"test_system": "blackgrass (Alopecurus myosuroides)", "test": "Test A postemergence application, visual injury rating 0-100", "summary_of_the_method": "as §1"}, "[14]": {"test_system": "corn (Zea mays)", "test": "Test A postemergence application, visual injury rating 0-100", "summary_of_the_method": "as §1"}, "[15]": {"test_system": "galium (catchweed bedstraw, Galium aparine)", "test": "Test A postemergence application, visual injury rating 0-100", "summary_of_the_method": "as §1"}, "[16]": {"test_system": "green foxtail (Setaria viridis)", "test": "Test A postemergence application, visual injury rating 0-100", "summary_of_the_method": "as §1"}, "[17]": {"test_system": "horseweed (Erigeron canadensis)", "test": "Test A postemergence application, visual injury rating 0-100", "summary_of_the_method": "as §1"}, "[18]": {"test_system": "kochia (Bassia scoparia)", "test": "Test A postemergence application, visual injury rating 0-100", "summary_of_the_method": "as §1"}, "[19]": {"test_system": "oat, wild (wild oat, Avena fatua)", "test": "Test A postemergence application, visual injury rating 0-100", "summary_of_the_method": "as §1"}, "[20]": {"test_system": "palmer (palmer amaranth, palmer pigweed, Amaranthus palmeri)", "test": "Test A postemergence application, visual injury rating 0-100", "summary_of_the_method": "as §1"}, "[21]": {"test_system": "ragweed (common ragweed, Ambrosia artemisiifolia)", "test": "Test A postemergence application, visual injury rating 0-100", "summary_of_the_method": "as §1"}, "[22]": {"test_system": "ryegrass, Italian (italian ryegrass, Lolium multiflorum)", "test": "Test A postemergence application, visual injury rating 0-100", "summary_of_the_method": "as §1"}, "[23]": {"test_system": "soybean (Glycine max)", "test": "Test A postemergence application, visual injury rating 0-100", "summary_of_the_method": "as §1"}, "[24]": {"test_system": "wheat (Triticum aestivum)", "test": "Test A postemergence application, visual injury rating 0-100", "summary_of_the_method": "as §1"}, "[25]": {"test_system": "barnyardgrass (Echinochloa crusgalli)", "test": "Test B flooded paddy test, visual plant response rating 0-100", "settings": "250 g ai/ha, Flood, applied to paddy water, evaluated after 13 days", "summary_of_the_method": "(§2)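 Each species was raised to two leaves before flooding to a 3 cm depth and dosing the water with compound. Injury was assessed by eye after 13 days under greenhouse conditions.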"}, "[26]": {"test_system": "ducksalad (Heteranthera limosa)", "test": "Test B flooded paddy test, visual plant response rating 0-100", "settings": "250 g ai/ha, Flood, applied to paddy water, evaluated after 13 days", "summary_of_the_method": "as §2"}, "[27]": {"test_system": "rice (Oryza sativa)", "test": "Test B flooded paddy test, visual plant response rating 0-100", "settings": "250 g ai/ha, Flood, applied to paddy water, evaluated after 13 days", "summary_of_the_method": "as §2"}, "[28]": {"test_system": "sedge, umbrella (small-flower umbrella sedge, Cyperus difformis)", "test": "Test B flooded paddy test, visual plant response rating 0-100", "settings": "250 g ai/ha, Flood, applied to paddy water, evaluated after 13 days", "summary_of_the_method": "as §2"}, "[29]": {"settings": "62 g ai/ha, 0 = no effect, 100 = complete control"}, "[30]": {"settings": "62 g ai/ha, postemergence, 10 days, 0 = no effect, 100 = complete control"}, "[31]": {"settings": "Postemergence, 16 g ai/ha, greenhouse 10 days, 0 no effect, 100 complete control"}}, "data": [{"smiles": "COC(=O)C1C=CC(NC(=O)C2(C)CN(c3cc(F)cc(F)c3)C(=O)O2)C1", "note": "(stereo not shown) [Compound 92]", "values": [{"measurement": "Barnyardgrass plant response rating", "setting": "[1]; 16 g ai/ha, 0 to 100 scale", "value": 0}, {"measurement": "Barnyardgrass plant response rating (0-100)", "setting": "[1]; [29]", "value": 0}, {"measurement": "Blackgrass plant response rating", "setting": "[2]; 16 g ai/ha, 0 to 100 scale", "value": 0}, {"measurement": "Blackgrass plant response rating (0-100)", "setting": "[2]; [29]", "value": 0}, {"measurement": "Corn plant response rating", "setting": "[3]; 16 g ai/ha, 0 to 100 scale", "value": 0}, {"measurement": "Corn plant response rating (0-100)", "setting": "[3]; [29]", "value": 0}, {"measurement": "Foxtail, Green plant response rating", "setting": "[4]; 16 g ai/ha, 0 to 100 scale", "value": 0}, {"measurement": "Foxtail, Green plant response rating (0-100)", "setting": "[4]; [29]", "value": 0}, {"measurement": "Kochia plant response rating", "setting": "[5]; 16 g ai/ha, 0 to 100 scale", "value": 0}, {"measurement": "Kochia plant response rating (0-100)", "setting": "[5]; [29]", "value": 0}, {"measurement": "Oat, Wild plant response rating", "setting": "[6]; 16 g ai/ha, 0 to 100 scale", "value": 0}, {"measurement": "Oat, Wild plant response rating (0-100)", "setting": "[6]; [29]", "value": 0}, {"measurement": "Pigweed, Palmer plant response rating", "setting": "[7]; 16 g ai/ha, 0 to 100 scale", "value": 0}, {"measurement": "Pigweed, Palmer plant response rating (0-100)", "setting": "[7]; [29]", "value": 70}, {"measurement": "Ragweed plant response rating", "setting": "[8]; 16 g ai/ha, 0 to 100 scale", "value": 0}, {"measurement": "Ragweed plant response rating (0-100)", "setting": "[8]; [29]", "value": 0}, {"measurement": "Ryegrass, Italian plant response rating", "setting": "[9]; 16 g ai/ha, 0 to 100 scale", "value": 0}, {"measurement": "Ryegrass, Italian plant response rating (0-100)", "setting": "[9]; [29]", "value": 0}, {"measurement": "Soybean plant response rating", "setting": "[10]; 16 g ai/ha, 0 to 100 scale", "value": 0}, {"measurement": "Soybean plant response rating (0-100)", "setting": "[10]; [29]", "value": 0}, {"measurement": "Wheat plant response rating", "setting": "[11]; 16 g ai/ha, 0 to 100 scale", "value": 0}, {"measurement": "Wheat plant response rating (0-100)", "setting": "[11]; [29]", "value": 0}, {"measurement": "Barnyardgrass plant response rating (0-100)", "setting": "[12]; [30]", "value": 0}, {"measurement": "Barnyardgrass plant response rating (0 to 100 scale)", "setting": "[12]; [31]", "value": 0}, {"measurement": "Blackgrass plant response rating (0-100)", "setting": "[13]; [30]", "value": 0}, {"measurement": "Blackgrass plant response rating (0 to 100 scale)", "setting": "[13]; [31]", "value": 0}, {"measurement": "Corn plant response rating (0-100)", "setting": "[14]; [30]", "value": 0}, {"measurement": "Corn plant response rating (0 to 100 scale)", "setting": "[14]; [31]", "value": 0}, {"measurement": "Galium plant response rating (0-100)", "setting": "[15]; [30]", "value": 0}, {"measurement": "Galium plant response rating (0 to 100 scale)", "setting": "[15]; [31]", "value": 0}, {"measurement": "Foxtail, Green plant response rating (0-100)", "setting": "[16]; [30]", "value": 0}, {"measurement": "Foxtail, Green plant response rating (0 to 100 scale)", "setting": "[16]; [31]", "value": 0}, {"measurement": "Horseweed plant response rating (0-100)", "setting": "[17]; [30]", "value": 0}, {"measurement": "Horseweed plant response rating (0 to 100 scale)", "setting": "[17]; [31]", "value": 0}, {"measurement": "Kochia plant response rating (0-100)", "setting": "[18]; [30]", "value": 0}, {"measurement": "Kochia plant response rating (0 to 100 scale)", "setting": "[18]; [31]", "value": 0}, {"measurement": "Oat, Wild plant response rating (0-100)", "setting": "[19]; [30]", "value": 0}, {"measurement": "Oat, Wild plant response rating (0 to 100 scale)", "setting": "[19]; [31]", "value": 0}, {"measurement": "Pigweed, Palmer plant response rating (0-100)", "setting": "[20]; [30]", "value": 0}, {"measurement": "Pigweed, Palmer plant response rating (0 to 100 scale)", "setting": "[20]; [31]", "value": 0}, {"measurement": "Ragweed plant response rating (0-100)", "setting": "[21]; [30]", "value": 20}, {"measurement": "Ragweed plant response rating (0 to 100 scale)", "setting": "[21]; [31]", "value": 0}, {"measurement": "Ryegrass, Italian plant response rating (0-100)", "setting": "[22]; [30]", "value": 0}, {"measurement": "Ryegrass, Italian plant response rating (0 to 100 scale)", "setting": "[22]; [31]", "value": 0}, {"measurement": "Soybean plant response rating (0-100)", "setting": "[23]; [30]", "value": 0}, {"measurement": "Soybean plant response rating (0 to 100 scale)", "setting": "[23]; [31]", "value": 0}, {"measurement": "Wheat plant response rating (0-100)", "setting": "[24]; [30]", "value": 0}, {"measurement": "Wheat plant response rating (0 to 100 scale)", "setting": "[24]; [31]", "value": 0}, {"measurement": "Plant response rating, Barnyardgrass (0 to 100 scale, 0 is no effect and 100 is complete control)", "setting": "[25]", "value": 0}, {"measurement": "Plant response rating, Ducksalad (0 to 100 scale, 0 is no effect and 100 is complete control)", "setting": "[26]", "value": 0}, {"measurement": "Plant response rating, Rice (0 to 100 scale, 0 is no effect and 100 is complete control)", "setting": "[27]", "value": 0}, {"measurement": "Plant response rating, Sedge, Umbrella (0 to 100 scale, 0 is no effect and 100 is complete control)", "setting": "[28]", "value": 0}]}]}
